From ChEMBL document CHEMBL3885861, “Open TG-GATES”

Organism: Rattus norvegicus
Test: Open TG-GATES - Regimen: Single
Type: toxicity, organism-based, Sprague-Dawley
Parameters: regimen Single, gender Male, age 6 weeks
Conditions: in vivo, po, 30 mg/kg, route gavage, dose level Low; for APTT / Bas / Eos / Fbg / Hb / Ht / Lym / MCH / MCHC / MCV / Mono / Neu / PT / Plat / RBC / Ret / WBC: tissue Blood; for KIDNEY_L / KIDNEY_R / KIDNEY_TOTAL: tissue Kidney; for LIVER: tissue Liver; for A/G / ALP / ALT / AST / BUN / CRE / Ca / Cl / DBIL / GLC / IP / K / LDH / Na / PL / RALB / TBIL / TC / TG / TP / gamma-GTP: tissue Plasma

CCOC(=O)C(C)(C)Oc1ccc(Cl)cc1 [CLOFIBRATE]
TERMINAL_BW (3 h): 228.4 g | APTT (3 h): 19.1 s | Bas (3 h): 0% | Eos (3 h): 1% | Fbg (3 h): 234.4 mg/dL | Hb (3 h): 13.3 g/dL | Ht (3 h): 38.4% | Lym (3 h): 80.4% | MCH (3 h): 21.8 pg | MCHC (3 h): 34.6% | MCV (3 h): 62.9 fL | Mono (3 h): 2.6% | Neu (3 h): 15.6% | PT (3 h): 12.3 s | Plat (3 h): 121.4 x10_4/uL | RBC (3 h): 611.2 x10_4/ul | Ret (3 h): 7.5% | WBC (3 h): 87.8 x10_2/uL | KIDNEY_L (3 h): 1 g | KIDNEY_R (3 h): 1 g | KIDNEY_TOTAL (3 h): 2 g | LIVER (3 h): 10.5 g | A/G (3 h): 1.6 | ALP (3 h): 1038.6 IU/L | ALT (3 h): 38.8 IU/L | AST (3 h): 71 IU/L | BUN (3 h): 12.2 mg/dL | CRE (3 h): 0.3 mg/dL | Ca (3 h): 11.2 mg/dL | Cl (3 h): 102.4 meq/L | DBIL (3 h): 0.4 mg/dL | GLC (3 h): 199.2 mg/dL | IP (3 h): 9 mg/dL | K (3 h): 3.9 meq/L | LDH (3 h): 199.6 IU/L | Na (3 h): 139.6 meq/L | PL (3 h): 178.4 mg/dL | RALB (3 h): 3.4 g/dL | TBIL (3 h): 0.4 mg/dL | TC (3 h): 84 mg/dL | TG (3 h): 194 mg/dL | TP (3 h): 5.6 g/dL | gamma-GTP (3 h): 1.2 IU/L | TERMINAL_BW (6 h): 224.5 g | APTT (6 h): 18.6 s | Bas (6 h): 0% | Eos (6 h): 1% | Fbg (6 h): 230 mg/dL | Hb (6 h): 13.5 g/dL | Ht (6 h): 38.9% | Lym (6 h): 78.4% | MCH (6 h): 21.7 pg | MCHC (6 h): 34.7% | MCV (6 h): 62.5 fL | Mono (6 h): 2.6% | Neu (6 h): 17.2% | PT (6 h): 12.3 s | Plat (6 h): 125.7 x10_4/uL | RBC (6 h): 623.2 x10_4/ul | Ret (6 h): 7.3% | WBC (6 h): 115.7 x10_2/uL | KIDNEY_L (6 h): 1 g | KIDNEY_R (6 h): 1 g | KIDNEY_TOTAL (6 h): 1.9 g | LIVER (6 h): 9.8 g | A/G (6 h): 1.6 | ALP (6 h): 1119.8 IU/L | ALT (6 h): 35.4 IU/L | AST (6 h): 69.2 IU/L | BUN (6 h): 7.8 mg/dL | CRE (6 h): 0.4 mg/dL | Ca (6 h): 10.7 mg/dL | Cl (6 h): 103.8 meq/L | DBIL (6 h): 0.1 mg/dL | GLC (6 h): 194.6 mg/dL | IP (6 h): 9 mg/dL | K (6 h): 4 meq/L | LDH (6 h): 273 IU/L | Na (6 h): 140.8 meq/L | PL (6 h): 143.6 mg/dL | RALB (6 h): 3.5 g/dL | TBIL (6 h): 0.2 mg/dL | TC (6 h): 73 mg/dL | TG (6 h): 88 mg/dL | TP (6 h): 5.7 g/dL | gamma-GTP (6 h): 1.4 IU/L | TERMINAL_BW (9 h): 223 g | APTT (9 h): 18.8 s | Bas (9 h): 0% | Eos (9 h): 1% | Fbg (9 h): 228.4 mg/dL | Hb (9 h): 13.2 g/dL | Ht (9 h): 37.7% | Lym (9 h): 79.8% | MCH (9 h): 21.5 pg | MCHC (9 h): 34.9% | MCV (9 h): 61.7 fL | Mono (9 h): 3.2% | Neu (9 h): 15.8% | PT (9 h): 12.8 s | Plat (9 h): 137.4 x10_4/uL | RBC (9 h): 611.4 x10_4/ul | Ret (9 h): 7.4% | WBC (9 h): 101.8 x10_2/uL | KIDNEY_L (9 h): 1 g | KIDNEY_R (9 h): 1 g | KIDNEY_TOTAL (9 h): 1.9 g | LIVER (9 h): 9.1 g | A/G (9 h): 1.6 | ALP (9 h): 814.2 IU/L | ALT (9 h): 27.6 IU/L | AST (9 h): 61.4 IU/L | BUN (9 h): 11.2 mg/dL | CRE (9 h): 0.4 mg/dL | Ca (9 h): 10.5 mg/dL | Cl (9 h): 101.6 meq/L | DBIL (9 h): 0.076 mg/dL | GLC (9 h): 216 mg/dL | IP (9 h): 11.1 mg/dL | K (9 h): 3.9 meq/L | LDH (9 h): 238.8 IU/L | Na (9 h): 140.2 meq/L | PL (9 h): 127.2 mg/dL | RALB (9 h): 3.4 g/dL | TBIL (9 h): 0.1 mg/dL | TC (9 h): 65.2 mg/dL | TG (9 h): 54.2 mg/dL | TP (9 h): 5.5 g/dL | gamma-GTP (9 h): 1 IU/L | TERMINAL_BW (24 h): 238.3 g | APTT (24 h): 20.6 s | Bas (24 h): 0% | Eos (24 h): 1% | Fbg (24 h): 215.6 mg/dL | Hb (24 h): 13.5 g/dL | Ht (24 h): 39% | Lym (24 h): 82% | MCH (24 h): 21.8 pg | MCHC (24 h): 34.8% | MCV (24 h): 62.7 fL | Mono (24 h): 2.8% | Neu (24 h): 13.6% | PT (24 h): 12.6 s | Plat (24 h): 123.8 x10_4/uL | RBC (24 h): 620.8 x10_4/ul | Ret (24 h): 6.6% | WBC (24 h): 103.6 x10_2/uL | KIDNEY_L (24 h): 1 g | KIDNEY_R (24 h): 1 g | KIDNEY_TOTAL (24 h): 2 g | LIVER (24 h): 11.1 g | A/G (24 h): 1.7 | ALP (24 h): 1108.2 IU/L | ALT (24 h): 34.2 IU/L | AST (24 h): 66.4 IU/L | BUN (24 h): 13.8 mg/dL | CRE (24 h): 0.4 mg/dL | Ca (24 h): 10.8 mg/dL | Cl (24 h): 102.8 meq/L | DBIL (24 h): 0.084 mg/dL | GLC (24 h): 203.8 mg/dL | IP (24 h): 7.1 mg/dL | K (24 h): 3.9 meq/L | LDH (24 h): 243 IU/L | Na (24 h): 140.6 meq/L | PL (24 h): 141 mg/dL | RALB (24 h): 3.4 g/dL | TBIL (24 h): 0.1 mg/dL | TC (24 h): 65 mg/dL | TG (24 h): 110.4 mg/dL | TP (24 h): 5.5 g/dL | gamma-GTP (24 h): 0.6 IU/L
